{"source": "patent EP4385508A1", "about": "“FURAN FATTY ACIDS FOR ENHANCING MUSCLE MASS” (Centre de Coopération Internationale en Recherche …, priority 2022, dated 2024)", "key": {"[1]": {"system": "C57BL/6J mice", "test": "High Fat and High Sucrose (HFHS) diet with FuFA-F2, quadriceps muscle mass", "format": "in vivo", "conditions": "12 weeks", "description": "Forty six-weeks old male C57BL/6J mice (Charles River, L'Arbresle, France), weighing about 21 g, were housed (5 per cage) under conditions of constant temperature (20-22°C), humidity (45-50%) and a standard dark cycle (20.00-08.00 hours). The mice were randomized, according to their initial weight, into four groups of ten animals and fed for 12 weeks with one of the four following semi-purified diets: 1) control diet, 2) HFHS diet, 3) HFHS + FuFA-F2 (0.048%, 40mg/kg body weight/day), 4) HFHS + FuFA-F2 (0.127%, 105mg/kg body weight/day). In this example, \"FuFA-F2\" is the triacylglycerol form of FuFA-F2.\nThe control diet contains 5% lipids as a mixture of rapeseed oil, high oleic sunflower oil, sunflower oil and linseed oil (oil mixture of Carrefour), the high fat high sucrose (HFHS) diets contain 25% lipids (5% of a mixture of rapeseed oil, high oleic sunflower oil, sunflower oil and linseed oil and 20% of lard) and 30% sucrose. The detailed composition of the diets is given in Table 1 at the end of the present description. […]\nThroughout the study, mice were given free access to food and tap water. Mice body weight was followed weekly and food consumption was determined every two days (during the week) or three days (the week-end). […]\nResults were expressed as means ± SD. […]"}, "[2]": {"system": "myosin heavy chains", "test": "Myosin heavy chain gene expression in quadriceps of supplemented C57Bl6 mice", "format": "in vivo", "conditions": "20mg/kg oral gavage", "description": "Male C57Bl/6J wild-type mice were obtained from Janvier at 12 weeks of age and were randomly assigned to one of the two groups based on body weight. Mice were housed 2 per cage and maintained on a 12-hour light/dark cycle (lights on at 7:30 pm). Food and water were provided ad libitum. Enrichment (nesting cotton squares) was provided in each cage. Mice were treated once daily by oral gavage with vehicle (50% PEG-400, 0.5% Tween 80, and 49.5% distilled water) or FuFA-F2 (20 mg/kg). All animal experiments were performed according to European directives (86/609/CEE and 2010/63/CEE) and approved by the regional animal experimentation ethics committe: Région Languedoc-Roussillon (No36). Our institutional guidelines for the care and use of laboratory animals were observed. […]\nThe PCR overall efficiency (E) was calculated from the slopes of the standard curves according to the equation E = [10^(-1/slope)] - 1, and this value was higher than 95% for all assays. The relative abundance of each sample was then normalized according to the equation: relative quantity = 2^- […]Ct. All of the experiments were performed according to the minimum information for publication of quantitative real-time PCR experiment (MIQE) guidelines (Bustin et al., 2009, Clin Chem, Vol. 55(4) : 611-622; Schmittgen et al., 2008, Net Protoc, Vol. 3(6) : 1101-1108). […]"}, "[3]": {"system": "C2C12 myotubes", "test": "Total protein content (protein accretion) in C2C12 myotubes", "format": "cell-based, Mouse", "conditions": "whatever the dose (1, 10, 50 µM), 3 days of supplementation, vs control", "description": "Mouse myoblasts of the C2C12 cell line (ATCC) were seeded at a plating density of 7000 cells/cm2 in 6-well plates. They were grown in DMEM high glucose (4.5g/l) supplemented with gentamycin (50 µg/mL), amphotericin (50 µg/mL), and fetal calf serum (10%). Terminal differentiation was induced at cell confluence by lowering the medium serum concentration (0.5%).\nWhen indicated, FuFA-F2 was added to the culture medium at the indicated concentration. For the differentiation studies, FuFA-F2 was added at the confluence at the same time as the change in media condition. Three doses of FuFA-F2 were studied at a final concentration of 1, 10, or 50 µM. Human insulin was used at a concentration of 100 nM.\nProtein levels were assessed by Western blotting. Total proteins were measured using the Bio-Rad protein assay (Hercules, CA, USA) according to the manufacturer's instructions. Total proteins were lysed in RIPA buffer (20mM Tris, 150mM NaCl, 1mM EDTA, 1% NP40, pH 7.5 + complete cocktail protease inhibitors + Pierce phosphatase inhibitors tablet). 40 µg of cell extracts were loaded and blotted onto a nitrocellulose membrane. The membranes were washed, blocked with 5% nonfat milk and incubated in primary antibody overnight at 4°C. […]"}}, "data": [{"smiles": "CCCCCc1cc(C)c(CCCCCCCCC(=O)O)o1", "note": "[FuFA-F2]", "values": [{"measurement": "quadriceps muscle mass", "setting": "[1]; HFHS diet + FuFA-F2 (triacylglycerol form) at any dose (40 and 105mg/kg body weight/day), compared to HFHS alone", "result": "increased"}, {"measurement": "quadriceps muscle mass", "setting": "[1]; highest dose 105mg/kg body weight/day by comparison to lowest dose 40mg/kg body weight/day, HFHS diet, triacylglycerol form", "result": "significantly increased"}, {"measurement": "MyHCIIa expression at the expense of MyHCIIb", "setting": "[2]", "result": "trend towards an increase"}, {"measurement": "expression of the different myosin heavy chains", "setting": "[2]; treated vs not treated", "result": "did not indicate any significant difference"}, {"measurement": "total protein content in C2C12 myotubes", "setting": "[3]", "result": "significantly increase"}]}]}
